Source: patent US20140271670A1, “COMPOSITIONS FOR TREATING SKIN DISORDERS” (priority 2013, published 2014)

Test system: Propionibacterium acnes (ATCC #6919)
Test: In vitro reduction of P. acnes population (plate counts after timed exposure)
Type: cell-based
Method: In vitro experiments show the effectiveness of a composition comprising salicylic acid and anti-P. acnes immunoglobulin at reducing a specific microorganism population.
The microorganism of interest in the described experiments was Propionibacterium acnes. A stock suspension of P. acnes was prepared by inoculating a sample of P. acnes (ATCC #6919) in Reinforced Clostria broth at 36±1° C. for 5 days anaerobically. This stock suspension was divided into four equal batches. The first batch served as a no treatment control group. The second batch was treated with 2% salicylic acid. The third batch was treated with 3 ppm anti-P. acnes IgY at 95% purity. The fourth batch was treated with 2% salicylic acid and 3 ppm anti-P. acnes IgY at 95% purity. At time intervals 30 seconds, 1 minute, 5 minutes, 12 hours, and 24 hours, 1.0 ml from the inoculated control and test batches was taken and placed into 9.0 ml of neutralizing broth (1:10 dilution). Additional dilutions were made using neutralizing broth to achieve 1:100, 1:1000 and 1:10,000 dilutions. One milliliter from each dilution was plated into TSA+5% sheep blood. The plates were incubated at 36±1° C. for 5 days anaerobically. After the incubation period, all plates were counted to determine the number of microorganism at each time point.

Q: How did the number of microorganism (Exposure Time 30 sec.) turn out when `O=C(O)c1ccccc1O` [2% SA, salicylic acid (o-hydroxybenzoic acid)] was run?
A: Its number of microorganism is 7.20E+05.

Q: And the number of microorganism (Exposure Time 12 hours)?
A: The number of microorganism was under 10.

Q: And the number of microorganism (Exposure Time 24 hours)?
A: The number of microorganism was under 10.

Q: What about the number of microorganism (Exposure Time Initial, P. acnes stock suspension) of the same compound?
A: The number of microorganism was 8.20E+05.

Q: And the “time after which a 99% kill rate was reached” value (used alone)?
A: Its value is 12 h.

Q: What about the “reduction of the concentration of P. acnes” value (within the first 30 seconds) of the same compound?
A: Its value is “about 12%”.
